# From US20130337564A1, “Treatment of Pluripotent Cells” (Janssen Biotech, Inc., priority 2012, published 2013)
# Where “and” joins values, the source holds several entries; their conditions need not be identical. Equal entries are not always repeated.
# Tests used:
# Format in all cases: cell-based
# [1] = system: cells expressing pluripotency markers derived from human embryonic stem cells; assay: MTS viability (toxicity) assay of cells expressing pluripotency markers; design: Raw data (duplicate), first replicate / Average: unit not given here; details: for viability at 10 µM: Homo sapiens, Embryonic stem cell; for viability at 10 µM / % Control: viability of cells expressing pluripotency markers, relative to control; for Raw data (duplicate), first replicate / Raw data (duplicate), second replicate: MTS viability assay raw reading; for Raw data (duplicate), first replicate: replicate 1; for Raw data (duplicate), second replicate: replicate 2; for Average: average of duplicate MTS raw readings; for Average of raw data (duplicate), optical density at 490 nm: MTS on day 4
# Outline: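 A GSK-3B inhibitor library was screened for toxicity to pluripotency-marker-expressing cells. Compound was given in DMEM:F12 with 0.5% FCS and 100 ng/ml Activin A for two days, then replaced by medium with 2% FCS and Activin A. On day 4, MTS absorbance at 490 nm gave viability as percent of Activin A plus Wnt3a control wells.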
# [2] = system: Sox17 expression in human embryonic stem cells (H9 line); assay: High content screening assay: Sox17 protein expression (differentiation); details: for fold induction at 10 µM: Homo sapiens, Embryonic stem cell, read-out: SOX17 Expression, Fold over Wnt 3a/AA control
# Outline: (§1)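 H9 hESCs on MATRIGEL treated days 1-2 with 10 μM compound in DMEM:F12, 0.5% FCS, 100 ng/ml activin A; days 3-4 with 2% FCS plus activin A without compound. Fixed cells immunostained for Sox17 or HNF-3beta with Draq5 nuclear counterstain. Cell number and staining intensity quantified by high-content imaging, 12 fields/well.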
# [3] = system: HNF-3beta expression in human embryonic stem cells (H9 line); assay: High content screening assay: HNF-3beta protein expression (differentiation); details: for fold induction at 10 µM: Homo sapiens, Embryonic stem cell, read-out: HNF3β Expression, Fold over Wnt 3a/AA control
# Outline: as §1
# [4] = 10 μM test compound with 100 ng/ml activin A on days 1-2, H9, total intensity by IN Cell Analyzer, strong and moderate hits
# [5] = total intensity normalised to Wnt 3a/AA control
Compound,viability at 10 µM [1],"Raw data (duplicate), first replicate [1]","Raw data (duplicate), second replicate [1]",Average [1],"Average of raw data (duplicate), optical density at 490 nm ([1]; cmpd conc 2.5 μM)","Average of raw data (duplicate), optical density at 490 nm ([1]; cmpd conc 5 μM)","Average of raw data (duplicate), optical density at 490 nm ([1]; cmpd conc 10 μM)",SOX-17 Expression Total Intensity [2],HNF-3b Expression Total Intensity [3],"fold induction at 10 µM [2, 4]","fold induction at 10 µM [3, 4]",% Control [1],"SOX-17 Expression Fold over Wnt 3a/AA control [2, 5]","HNF-3b Expression Fold over Wnt 3a/AA control [3, 5]","SOX17 Expression, Fold over Wnt 3a/AA control [2, 4]","HNF3β Expression, Fold over Wnt 3a/AA control [3, 4]"
"CN(C)c1cccc(-n2cc(C3=C(c4nn(CCO)c5ccccc45)C(=O)NC3=O)c3ccccc32)c1 [Compound 145, 3-{1-[3-(Dimethylamino)phenyl]-1H-indol-3-yl}-4-[1-(2-hydroxyethyl)-1H-indazol-3-yl]-1H-pyrrole-2,5-dione]",105%,0.831,0.822,0.826,0.7608,0.5871,0.1277,238555000,82808745,,,,,,,
"O=C1NC(=O)C(c2cn(CCCO)c3ncccc23)=C1c1ccn(CCCO)n1 [Compound 185, 3-[1-(3-Hydroxypropyl)-1H-pyrazol-3-yl]-4-[1-(3-hydroxypropyl)-1H-pyrrolo[2,3-b]pyridin-3-yl]-1H-pyrrole-2,5-dione]",104%,0.830,0.807,0.818,,,,,,0.889,0.865,,,,,
"CN(C)CCCn1cc(C2=C(c3cccc4ccccc34)C(=O)NC2=O)c2cccnc21 [Compound 175, 3-{1-[3-(Dimethylamino)propyl]-1H-pyrrolo[2,3-b]pyridin-3-yl}-4-naphthalen-1-yl-1H-pyrrole-2,5-dione]",3%,0.135,0.158,0.146,,,,0,1605538,,,,,,,
"Cn1cc(C2=C(c3nn(CCCn4ccnn4)c4ccccc34)C(=O)NC2=O)c2cc(Cl)ccc21 [Compound 232, 3-(5-Chloro-1-methyl-1H-indol-3-yl)-4-{1-[3-(1H-1,2,3-triazol-1-yl)propyl]-1H-indazol-3-yl}-1H-pyrrole-2,5-dione]",87.3%,0.720,0.697,0.709,,,,1045395000,854325000,1.07,0.771,,,,,
"O=C1NC(=O)C(c2nn(CCO)c3ccccc23)=C1c1cn(-c2cncnc2)c2ccccc12 [Compound 226, 3-[1-(2-Hydroxyethyl)-1H-indazol-3-yl]-4-(1-pyrimidin-5-yl-1H-indol-3-yl)-1H-pyrrole-2,5-dione]",83.1%,0.683,0.688,0.686,0.7474,0.7506,0.6945,572520000,329425000,0.589,,,,,,
"O=C1NC(=O)C(c2cn(CCCO)c3ncccc23)=C1c1cnccn1 [Compound 47, 3-[1-(3-Hydroxypropyl)-1H-pyrrolo[2,3-b]pyridin-3-yl]-4-pyrazin-2-yl-1H-pyrrole-2,5-dione]",104%,,,,,,,382680000,560475000,1.02,1.22,,,,,
"O=C1NC(=O)C2=C1Nc1cccc(c1)OCCC/C=C\CCCOc1cccc2c1 [Compound 233, (11Z)-8,9,10,13,14,15-Hexahydro-2,6:17,21-di(metheno)pyrrolo[3,4-h][1,15,7]dioxazacyclotricosine-22,24(1H,23H)-dione]",70.9%,0.608,0.590,0.599,0.4267,0.1283,0.1391,327055000,109160000,,,,,,,
"O=C1NC(=O)C2=C1c1cn(c3ccccc13)CCOCCOCCn1cc2c2ccccc21 [Compound 164, 6,7,9,10,12,13-Hexahydro-20H-5,23:14,19-di(metheno)dibenzo[h,n]pyrrolo[3,4-k][1,4,7,16]dioxadiazacyclooctadecine-20,22(21H)-dione]",,0.603,0.584,0.593,,,,85949,1300640,,,69.4%,0.0028 fold,0.0475 fold,,
O=C1NC(=O)C2=C1c1cn(c3ncccc13)CCOCCOCCOCCOCCn1cc2c2cccnc21 [Compound 169],,0.681 and 0.636,0.698 and 0.621,0.689 and 0.629,,,,,,,,84.5% and 75.4%,,,1.0342 Fold over Wnt 3a/AA control,0.9520 Fold over Wnt 3a/AA control
